Earlier results in patent publication US9801827B2, “Dosage forms for administering combinations of drugs” (Pozen Inc., priority 2006, dated 2017).

Details: pharmacokinetic half-life, given as examples of long acting NSAIDs

| Compound | half-life |
| --- | --- |
| O=C(c1ccccc1)c1ccc2n1CCC2C(=O)O (stereo not drawn) [ketorolac] | 8 to 9 h |
| CCc1cccc2c3c([nH]c12)C(CC)(CC(=O)O)OCC3 (stereo not drawn) [etodolac] | about 7 hours |
| Cc1cccc(Nc2ccccc2C(=O)O)c1C [mefenamic acid] | up to 4 hours |
| CC(C(=O)O)c1ccc(-c2ccccc2)c(F)c1 (stereo not drawn) [flurbiprofen] | about 6 hours |

The remaining lines, values ahead:

| half-life | Compound |
| --- | --- |
| 22 to 30 h | COc1ccc2cc(CCC(C)=O)ccc2c1 [nabumetone] |
| 42 to 50 h | O=C(O)CCc1nc(-c2ccccc2)c(-c2ccccc2)o1 [oxaprozin] |
